Experimental data reported in PMC3384541 (Cancer discovery, 2012).

Assays:
[1] = system: HMEC-CA-p110α, HMEC-CA-p110β, HMEC-CA-p110δ; assay type: cell-based, human; conditions: isogenic HMEC-CA-p110 lines, serum-free, western blot
HCC1954 tumors = assay: Xenograft tumor growth; assay type: in vivo, mice; conditions: PTEN wild-type
Rat1-CA-p110α tumors [2] = assay: In vivo pharmacodynamics, pAKT in tumor lysates; set-up: species or system mice; conditions: after single IP injection 10 mg/kg
PC3 tumors = assay: Xenograft tumor growth; assay type: in vivo, mice; conditions: PTEN-deficient; IP, 20 mg/kg, BID
panel of 433 kinases = assay: KinomeScan kinase selectivity profile; assay type: binding; conditions: 10 µM
Rat1-CA-p110β tumors [3] = assay: In vivo pharmacodynamics, pAKT in tumor lysates; set-up: species or system mice; conditions: 1 hour after single IP injection 10 mg/kg
HCC70 tumors = assay: Xenograft tumor growth; assay type: in vivo, mice; conditions: PTEN-deficient; IP, 20 mg/kg, BID
[4] = system: panel of 422 cancer cell lines; assay: High-throughput cell viability assay; assay type: cell-based, human; conditions: threshold EC50 < 5 µM, 72 h treatment
In vivo pharmacokinetics = assay: In vivo pharmacokinetics; set-up: species or system mice
HMEC-CA-p110β = assay: BacMam-enabled LanthaScreen cellular assay; assay type: cell-based; conditions: Homo sapiens, read-out: IC50 in cell culture
Rat1-CA-p110β tumors [5] = assay: Xenograft tumor growth; assay type: in vivo, mice; conditions: IP 20 mg/kg once or twice daily
[6] = system: HCC70, MDA-MB-468, BT549 and PC3 cell lines; assay: Western blot of AKT phosphorylation in PTEN-null cancer cell lines; assay type: cell-based, human
Rat1-CA-p110α tumors [7] = assay: Xenograft tumor growth; assay type: in vivo, mice; conditions: IP 20 mg/kg once or twice daily
[8] = single IP injection 10 mg/kg, tumor-bearing mice

Cc1cc(C(C)Nc2ccccc2)c2nc(N3CCOCC3)cc(=O)n2c1 (centres unmarked) [TGX-221]
inhibition of phosphorylation of AKT at Thr308 and Ser473 [1]: in a dose-dependent manner

CS(=O)(=O)N1CCN(Cc2cc3nc(-c4cccc5[nH]ncc45)nc(N4CCOCC4)c3s2)CC1 [GDC-0941, reference compound]
tumor growth (HCC1954 tumors; PO, 150 mg/kg, QD): responded to treatment

Cc1cc([C@@H](C)Nc2ccccc2C(=O)O)c2nc(N3CCOCC3)cc(=O)n2c1 [KIN-193, (−)2-[1-(7-Me-2-(morpholin-4-yl)-4-oxo-4H-pyrido[1,2-a]pyrimidin-9-yl)ethylamino]benzoic acid]
phosphorylation of AKT in tumor lysates (Rat1-CA-p110α tumors [2]): remained unchanged
tumor growth (PC3 tumors): significantly inhibited tumor growth
inhibitor-kinase interaction profile (panel of 433 kinases): highly selective in its interaction with PI3Ks
phosphorylation of AKT in tumor lysates (Rat1-CA-p110β tumors [3]): significantly reduced
tumor growth (HCC70 tumors): significantly inhibited tumor growth
cell lines with PTEN mutations sensitive to compound ([4]; 20 out of 57 lines): 35%
cell lines with wild-type PTEN sensitive to compound ([4]; 58 out of 365 lines): 16%
IC50 (In vivo pharmacokinetics; Mus musculus, read-out: IC50 / level reached in vivo): ≤ 1000 nM
optimal route for robust in vivo exposure (In vivo pharmacokinetics; mice): intraperitoneal (IP) delivery to be the optimal route
concentrations in CA-p110α- and CA-p110β-driven tumors (In vivo pharmacokinetics; single IP injection 10 mg/kg): paralleled the plasma concentrations
time by which plasma concentration declined to undetectable levels (In vivo pharmacokinetics; [8]): ≤ 4 h
time of highest plasma concentration (In vivo pharmacokinetics; [8]): 1 h
tumor growth (HCC1954 tumors; IP, 20 mg/kg, BID): failed to block the growth
IC50 (HMEC-CA-p110β): 100 to 500 nM
tumor growth (Rat1-CA-p110β tumors [5]): significantly impaired
effect on AKT phosphorylation [6]: significantly inhibited AKT phosphorylation
tumor growth (Rat1-CA-p110α tumors [7]): little effect

Cc1ccccc1-n1c(Cn2cnc3c(N)ncnc32)nc2cccc(C)c2c1=O [IC87114]
inhibition of phosphorylation of AKT at Thr308 and Ser473 [1]: in a dose-dependent manner
effect on AKT phosphorylation [6]: had much less effect

Cc1ccc([N+](=O)[O-])cc1S(=O)(=O)N(C)/N=C/c1cnc2ccc(Br)cn12 [PIK-75]
inhibition of phosphorylation of AKT at Thr308 and Ser473 [1]: in a dose-dependent manner
effect on AKT phosphorylation [6]: had much less effect
